From US20050209278A1, “Piperidinyl- and piperazinyl-sulfonylmethyl hydroxamic acids and their use as protease inhibitors” (priority 2002, published 2005)
Counter-ions that a name gives are not always drawn. Like-named read-outs stand apart in the source and are kept apart here.

Assays:
Type in all cases: biochemical
MMP-2 = target: T1, MMP-2 (Homo sapiens, UniProt P08253); experiment: MMP-2 inhibition (in vitro Ki)
T1 construct: made in house; host or cells: MMP-2-transfected p2AHT2 cells
T1 sequence (P08253 110-660): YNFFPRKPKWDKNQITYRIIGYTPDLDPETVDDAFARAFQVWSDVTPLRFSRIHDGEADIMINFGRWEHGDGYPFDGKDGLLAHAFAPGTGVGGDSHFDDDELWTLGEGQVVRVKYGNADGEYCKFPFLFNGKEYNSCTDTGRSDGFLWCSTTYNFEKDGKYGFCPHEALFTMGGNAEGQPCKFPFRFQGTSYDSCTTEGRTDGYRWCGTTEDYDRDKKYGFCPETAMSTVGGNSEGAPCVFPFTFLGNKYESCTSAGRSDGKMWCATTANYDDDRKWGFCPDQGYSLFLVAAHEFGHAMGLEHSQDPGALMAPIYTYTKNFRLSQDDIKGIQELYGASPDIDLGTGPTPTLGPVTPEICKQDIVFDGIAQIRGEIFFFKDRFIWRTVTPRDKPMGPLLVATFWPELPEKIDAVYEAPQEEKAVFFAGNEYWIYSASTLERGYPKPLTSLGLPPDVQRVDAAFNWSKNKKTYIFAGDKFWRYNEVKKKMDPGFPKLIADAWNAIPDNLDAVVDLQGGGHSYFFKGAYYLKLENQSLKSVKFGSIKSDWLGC

MMP-9 = target: T2, MMP-9 (Homo sapiens, UniProt P14780); experiment: MMP-9 inhibition (in vitro Ki)
T2 construct: made in house; host or cells: MMP-9-transfected HT1080 cells (spent media)

MMP-1 = target: T3, MMP-1 (Homo sapiens, UniProt P03956); experiment: MMP-1 inhibition (in vitro Ki)
T3 construct: made in house; host or cells: MMP-1-transfected HT-1080 cells (spent media)
T3 sequence (P03956 100-469): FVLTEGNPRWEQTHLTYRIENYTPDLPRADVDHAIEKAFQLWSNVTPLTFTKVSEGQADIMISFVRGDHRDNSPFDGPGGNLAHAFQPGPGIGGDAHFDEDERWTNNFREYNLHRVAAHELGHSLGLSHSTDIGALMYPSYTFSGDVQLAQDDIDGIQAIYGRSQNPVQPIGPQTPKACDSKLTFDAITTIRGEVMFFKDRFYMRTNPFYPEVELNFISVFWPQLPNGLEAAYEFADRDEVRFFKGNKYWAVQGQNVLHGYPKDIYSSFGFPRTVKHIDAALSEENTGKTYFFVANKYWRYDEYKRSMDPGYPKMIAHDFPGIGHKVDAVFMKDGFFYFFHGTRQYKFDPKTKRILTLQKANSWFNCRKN

MMP-13 = target: T4, MMP-13 (Homo sapiens, UniProt P45452); experiment: MMP-13 inhibition (in vitro Ki)
T4 construct: made in house; host or cells: baculovirus / insect cells

MMP-14 = target: T5, MMP-14 (Homo sapiens, UniProt P50281); experiment: MMP-14 inhibition (in vitro Ki)
T5 construct: The catalytic domain enzyme was expressed in E. coli inclusion bodies, solubilized in urea; made in house

[1] = Table 9, read-out: MMP-2 Ki (IC-50)
[2] = Table 9, read-out: MMP-9 Ki (IC-50)
[3] = Table 9, read-out: MMP-1 Ki (IC-50)
[4] = Table 9, read-out: MMP-13 Ki (IC-50)
[5] = Table 9, read-out: MMP-14 Ki (IC-50)

T2 sequence (P14780 107-707 limits assumed): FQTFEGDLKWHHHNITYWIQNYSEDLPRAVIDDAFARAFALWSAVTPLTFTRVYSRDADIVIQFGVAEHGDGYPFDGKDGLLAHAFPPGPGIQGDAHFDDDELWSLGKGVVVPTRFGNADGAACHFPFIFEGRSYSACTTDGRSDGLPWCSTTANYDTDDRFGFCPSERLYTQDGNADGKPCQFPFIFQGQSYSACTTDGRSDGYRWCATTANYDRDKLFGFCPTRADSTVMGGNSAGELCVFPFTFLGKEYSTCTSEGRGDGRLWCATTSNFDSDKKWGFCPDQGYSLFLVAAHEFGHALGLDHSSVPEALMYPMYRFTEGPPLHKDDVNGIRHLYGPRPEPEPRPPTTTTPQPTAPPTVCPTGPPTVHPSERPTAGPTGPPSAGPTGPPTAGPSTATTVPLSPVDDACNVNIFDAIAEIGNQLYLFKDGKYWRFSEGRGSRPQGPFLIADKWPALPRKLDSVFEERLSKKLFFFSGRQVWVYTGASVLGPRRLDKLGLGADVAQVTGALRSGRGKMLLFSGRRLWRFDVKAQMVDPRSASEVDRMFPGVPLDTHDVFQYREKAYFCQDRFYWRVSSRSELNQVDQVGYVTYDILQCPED

SMILES | Ki (MMP-2; Table 8, read-out: MMP-2 Ki) | Ki (MMP-9; Table 8, read-out: MMP-9 Ki) | Ki (MMP-1; Table 8, read-out: MMP-1 Ki) | Ki (MMP-13; Table 8, read-out: MMP-13 Ki) | Ki (MMP-14; Table 8, read-out: MMP-14 Ki) | Ki (MMP-2; [1]) | Ki (MMP-9; [2]) | Ki (MMP-1; [3]) | Ki (MMP-13; [4]) | Ki (MMP-14; [5])
O=C(NO)C1(S(=O)(=O)N2CCC(CCCCc3nc(-c4ccc(OC(F)(F)F)cc4)no3)CC2)CCOCC1 [Example A64, N-hydroxy-4-{[4-(4-{3-[4-(trifluoromethoxy)phenyl]-1,2,4-oxadiazol-5-yl}butyl)piperidin-1-yl]sulfonyl}tetrahydro-2H-pyran-4-carboxamide] | 63.8 nM | 273 nM | 8880 nM | 0.51 nM | > 10000 nM | – | – | – | – | –
O=C(NO)C1(S(=O)(=O)N2CCC(c3cnc(CCC(F)(F)C(F)(F)F)cn3)CC2)CCOCC1 [Example A65, N-hydroxy-4-({4-[5-(3,3,4,4,4-pentafluorobutyl)pyrazin-2-yl]piperidin-1-yl}sulfonyl)tetrahydro-2H-pyran-4-carboxamide] | 2.15 nM | 0.19 nM | > 10000 nM | 0.47 nM | 3870 nM | – | – | – | – | –
O=C(NO)C1(S(=O)(=O)N2CCC(c3cnc(OCCC4CC4)cn3)CC2)CCOCC1 [Example A67, 4-({4-[5-(2-cyclopropylethoxy)pyrazin-2-yl]piperidin-1-yl}sulfonyl)-N-hydroxytetrahydro-2H-pyran-4-carboxamide] | 0.66 nM | 0.07 nM | 4450 nM | 0.22 nM | 1350 nM | – | – | – | – | –
CC1(C)O[C@H]2C[C@@](C(=O)NO)(S(=O)(=O)N3CCC(c4ccc(CCC(F)(F)C(F)(F)F)cn4)CC3)C[C@H]2O1 [Example A73] | – | – | – | – | – | 0.22 nM | 0.16 nM | 716 nM | 0.09 nM | 140 nM
O=C(/C=C/C=C/C1CCN(S(=O)(=O)C2(C(=O)NO)CCOCC2)CC1)N1CCc2ccccc2C1 [Example A75] | – | – | – | – | – | 228 nM | 501 nM | 6150 nM | 0.41 nM | > 10000 nM
O=C(/C=C/C=C/C1CCN(S(=O)(=O)C2(C(=O)NO)CCOCC2)CC1)N1CCN(c2ccccc2)CC1 [Example A76] | – | – | – | – | – | 356 nM | 1780 nM | > 10000 nM | 6.79 nM | > 10000 nM
O=C(/C=C/C=C/C1CCN(S(=O)(=O)C2(C(=O)NO)CCOCC2)CC1)N1CCCCC1 [Example A78] | – | – | – | – | – | 172 nM | 428 nM | 2420 nM | 0.52 nM | > 10000 nM
O=C(/C=C/C=C/C1CCN(S(=O)(=O)C2(C(=O)NO)CCOCC2)CC1)N1Cc2ccccc2C1 [Example A82] | – | – | – | – | – | 1080 nM | 8280 nM | > 10000 nM | 0.901 nM | > 10000 nM
C#CCN(C)C(=O)CCCCC1CCN(S(=O)(=O)C2(C(=O)NO)CCOCC2)CC1 [Example A83] | – | – | – | – | – | 60 nM | 382 nM | 277 nM | 1.58 nM | > 10000 nM
O=C(NO)C(CC1CC1)(CC1CC1)S(=O)(=O)N1CCC(c2ccc(CCC(F)(F)F)cn2)CC1 [Example A84] | – | – | – | – | – | 2.88 nM | 0.738 nM | 9770 nM | 1.82 nM | 5390 nM
O=C(CCCCC1CCN(S(=O)(=O)C2(C(=O)NO)CCOCC2)CC1)N1CCOCC1 [Example A85] | – | – | – | – | – | 82.3 nM | 553 nM | 3420 nM | 3 nM | > 10000 nM
O=C(CCCCC1CCN(S(=O)(=O)C2(C(=O)NO)CCOCC2)CC1)N1Cc2ccccc2C1 [Example A87] | – | – | – | – | – | 17.2 nM | 107 nM | 927 nM | 0.01 nM | > 10000 nM
O=C(CCCCC1CCN(S(=O)(=O)C2(C(=O)NO)CCOCC2)CC1)Nc1ccc(OC(F)(F)F)cc1 [Example A89] | – | – | – | – | – | 29.3 nM | 471 nM | 1030 nM | 0.66 nM | 8570 nM

Second part, the compound after the results:

Ki (MMP-2; Table 8, read-out: MMP-2 Ki) | Ki (MMP-9; Table 8, read-out: MMP-9 Ki) | Ki (MMP-1; Table 8, read-out: MMP-1 Ki) | Ki (MMP-13; Table 8, read-out: MMP-13 Ki) | Ki (MMP-14; Table 8, read-out: MMP-14 Ki) | Ki (MMP-2; [1]) | Ki (MMP-9; [2]) | Ki (MMP-1; [3]) | Ki (MMP-13; [4]) | Ki (MMP-14; [5]) | SMILES
0.98 nM | 0.38 nM | 3530 nM | 0.16 nM | 4170 nM | – | – | – | – | – | COCCC(CCOC)(C(=O)NO)S(=O)(=O)N1CCC(c2ccc(CCC(F)(F)C(F)(F)F)cn2)CC1 [Example A61, N-hydroxy-4-methoxy-2-(2-methoxyethyl)-2-({4-[5-(3,3,4,4,4-pentafluorobutyl)pyridin-2-yl]piperidin-1-yl}sulfonyl)butanamide Hydrochloride]
0.73 nM | 1.74 nM | > 10000 nM | 0.56 nM | 9050 nM | – | – | – | – | – | O=C(NO)C1(S(=O)(=O)N2CCN(c3ccc(CCCC(F)(F)F)c(F)c3)CC2)CCN(C2CC2)CC1 [Example A62, 1-cyclopropyl-4-({4-[3-fluoro-4-(4,4,4-trifluorobutyl)phenyl]piperazin-1-yl}sulfonyl)-N-hydroxypiperidine-4-carboxamide Hydrochloride]
0.5 nM | 0.22 nM | 4370 nM | 0.39 nM | 1840 nM | – | – | – | – | – | CC(F)(F)CCc1ccc(C2CCN(S(=O)(=O)C3(C(=O)NO)CCOCC3)CC2)nc1 [Example A63, 4-({4-[5-(3,3-difluorobutyl)pyridin-2-yl]piperidin-1-yl}sulfonyl)-N-hydroxytetrahydro-2H-pyran-4-carboxamide Hydrochloride]
2.15 nM | 1.15 nM | > 10000 nM | 1.28 nM | 9640 nM | – | – | – | – | – | COCCC(C(=O)NO)S(=O)(=O)N1CCC(c2ccc(CCC(F)(F)C(F)(F)F)cc2)CC1 (centres unmarked) [Example A66, N-hydroxy-4-methoxy-2-({4-[4-(3,3,4,4,4-pentafluorobutyl)phenyl]piperidin-1-yl}sulfonyl)butanamide]
– | – | – | – | – | 3.8 nM | 1.4 nM | > 10000 nM | 2 nM | > 10000 nM | O=C(NO)C1(S(=O)(=O)N2CCC(c3cnc(CCC(F)(F)F)cn3)CC2)CCOCC1 [Example A72]
– | – | – | – | – | 21.8 nM | 65.8 nM | 512 nM | 0.18 nM | 7960 nM | O=C(CCCCC1CCN(S(=O)(=O)C2(C(=O)NO)CCOCC2)CC1)N1CCc2ccccc2C1 [Example A74]
– | – | – | – | – | 1100 nM | 5910 nM | 6200 nM | 6.79 nM | > 10000 nM | CC(C)CN(C)C(=O)/C=C/C=C/C1CCN(S(=O)(=O)C2(C(=O)NO)CCOCC2)CC1 [Example A77]
– | – | – | – | – | 2450 nM | > 10000 nM | > 10000 nM | 5.94 nM | > 10000 nM | CN(C(=O)/C=C/C=C/C1CCN(S(=O)(=O)C2(C(=O)NO)CCOCC2)CC1)C1CCCCC1 [Example A79]
– | – | – | – | – | 239 nM | 1890 nM | 5450 nM | 0.389 nM | > 10000 nM | O=C(/C=C/C=C/C1CCN(S(=O)(=O)C2(C(=O)NO)CCOCC2)CC1)N1CCc2ccccc21 [Example A80]
– | – | – | – | – | 213 nM | 274 nM | 4440 nM | 0.92 nM | > 10000 nM | O=C(/C=C/C=C/C1CCN(S(=O)(=O)C2(C(=O)NO)CCOCC2)CC1)N1C[C@H]2CCCC[C@H]2C1 [Example A81]
– | – | – | – | – | 23.8 nM | 307 nM | 516 nM | 8.19 nM | 7540 nM | CNC(=O)CCCCC1CCN(S(=O)(=O)C2(C(=O)NO)CCOCC2)CC1 [Example A86]
– | – | – | – | – | 38 nM | 50.7 nM | 2780 nM | 2.01 nM | 5360 nM | O=C(CCCCC1CCN(S(=O)(=O)C2(C(=O)NO)CCOCC2)CC1)N1CC2CCCCC2C1 (centres unmarked) [Example A88]
– | – | – | – | – | 781 nM | 3800 nM | 2580 nM | 5.08 nM | > 10000 nM | CC(C)CN(C)C(=O)CCCCC1CCN(S(=O)(=O)C2(C(=O)NO)CCOCC2)CC1 [Example A91]
– | – | – | – | – | 237 nM | 1100 nM | 3910 nM | 2.01 nM | > 10000 nM | O=C(CCCCC1CCN(S(=O)(=O)C2(C(=O)NO)CCOCC2)CC1)N1CCCCC1 [Example A92]
– | – | – | – | – | 92.3 nM | 336 nM | 1050 nM | 0.82 nM | > 10000 nM | CN(C(=O)CCCCC1CCN(S(=O)(=O)C2(C(=O)NO)CCOCC2)CC1)c1ccc(F)cc1 [Example A93]
